The test system of one assay is B16. Kind of assay: Cytotoxicity against mouse B16 cells assessed as cell growth inhibition measured after 48 hrs by MTT assay. Format: functional. Background: Formazan colour is commonly taken as a measure of viable cells.
Another assay has as its system DLD-1. Kind of assay: Cytotoxicity against human DLD-1 cells assessed as cell growth inhibition measured after 48 hrs by MTT assay. It counts as functional.
The next assay deals with A 172. Put plainly: Cytotoxicity against human A-172 cells assessed as cell growth inhibition measured after 48 hrs by MTT assay. It counts as functional.
The test system of another assay is SiHa. Kind of assay: Cytotoxicity against human SiHa cells assessed as cell growth inhibition measured after 48 hrs by MTT assay. Format: functional.
The subject of assay [1] is HeLa. Put plainly: Cytotoxicity against human HeLa cells assessed as cell growth inhibition measured after 48 hrs by MTT assay. It counts as functional.
Assay [2] can be described thus: Cytotoxicity against human U87 cells assessed as cell growth inhibition measured after 48 hrs by MTT assay. Format: functional, U-87MG ATCC. The note with it: U-87 MG.
Another assay has as its system HT-29. Put plainly: Antiproliferative activity against human HT-29 cells assessed as reduction in cell viability measured for 72 hrs by MTT assay. Format: functional, cell-based. As to conditions: HT-29, 72 h.
In assay [3] the test system is HeLa. Put plainly: Antiproliferative activity against human HeLa cells assessed as reduction in cell viability measured for 72 hrs by MTT assay. Format: functional, cell-based.
The test system of another assay is MDA-MB-231. Put plainly: Antiproliferative activity against human MDA-MB-231 cells assessed as reduction in cell viability measured for 72 hrs by MTT assay. It counts as functional, cell-based. As to conditions: MDA-MB-231, 72 h.
A further assay concerns A549. Kind of assay: Antiproliferative activity against human A549 cells assessed as reduction in cell viability measured for 72 hrs by MTT assay. Format: functional, cell-based. As to conditions: A549, 72 h.
For another assay, the system named is NCI-H460. Put plainly: Antiproliferative activity against human NCI-H460 cells assessed as reduction in cell viability measured for 72 hrs by MTT assay. It counts as functional, cell-based. The note with it: NCI-H460, 72 h.

SMILES strings stand for the structures.

`C[C@H]1[C@H](n2nncc2-c2ccc(F)cc2)O[C@@H]2O[C@@]3(C)CC[C@H]4[C@H](C)CC[C@@H]1[C@@]24OO3`: the GI50 (in the assay with B16; with DLD-1; in the assay on A 172; in the assay with SiHa; with HeLa [1]; in assay [2]) was 40 nM in each case.
Turning to `CCCCCc1ccc(-c2cn([C@@H]3O[C@@H]4O[C@@]5(C)CC[C@H]6[C@H](C)CC[C@@H]([C@H]3C)[C@@]46OO5)nn2)cc1`, the GI50 (with B16; with DLD-1; in the assay on A 172; with SiHa; with HeLa [1]; in [2]) was 50 nM each time.
In the case of `C[C@H]1[C@H](n2nncc2-c2ccccc2C(F)(F)F)O[C@@H]2O[C@@]3(C)CC[C@H]4[C@H](C)CC[C@@H]1[C@@]24OO3`, the GI50 (with B16; with DLD-1; with A 172; with SiHa; in the assay on HeLa [1]; in [2]) was 40 nM in each case.
`C[C@@H]1[C@@H](n2cc(-c3cc(F)cc(F)c3)nn2)O[C@@H]2O[C@@]3(C)CC[C@H]4[C@H](C)CC[C@@H]1[C@@]24OO3`: the GI50 (in the assay on B16; with DLD-1; in the assay with A 172; in the assay with SiHa; with HeLa [1]; in assay [2]) was 30 nM in each case.
Consider `C[C@H]1[C@@H](n2cc(-c3ccccc3)nn2)O[C@@H]2O[C@@]3(C)CC[C@H]4[C@H](C)CC[C@@H]1[C@@]24OO3`, for which the GI50 (in the assay with B16; in the assay on DLD-1; in the assay with A 172; with SiHa; in the assay on HeLa [1]; in assay [2]) was 130 nM in each case.
Consider `C[C@H]1[C@H](n2cc(-c3ccccc3C(F)(F)F)nn2)O[C@@H]2O[C@@]3(C)CC[C@H]4[C@H](C)CC[C@@H]1[C@@]24OO3`, for which the GI50 (in the assay on B16; in the assay with DLD-1; in the assay on A 172; in the assay on SiHa; in the assay with HeLa [1]; in [2]) was 50 nM in each case.
As to `CCCCCc1ccc(-c2cnnn2[C@@H]2O[C@@H]3O[C@@]4(C)CC[C@H]5[C@H](C)CC[C@@H]([C@H]2C)[C@@]35OO4)cc1`, the GI50 (with B16; in the assay on DLD-1; with A 172; in the assay with SiHa; with HeLa [1]; in [2]) was 40 nM in each case.
Take `C[C@@H]1[C@@H](n2cc(-c3ccccc3C(F)(F)F)nn2)O[C@@H]2O[C@@]3(C)CC[C@H]4[C@H](C)CC[C@@H]1[C@@]24OO3`: the GI50 (with B16; in the assay with DLD-1; in the assay with A 172; with SiHa; in the assay on HeLa [1]; in assay [2]) was 30 nM each time.
As for `C[C@H]1[C@H](n2nncc2-c2cc(F)cc(F)c2)O[C@@H]2O[C@@]3(C)CC[C@H]4[C@H](C)CC[C@@H]1[C@@]24OO3`, the GI50 (with B16; in the assay on DLD-1; in the assay with A 172; with SiHa; with HeLa [1]; in [2]) was 40 nM throughout.
Turning to `C[C@@H]1[C@@H](n2cc(-c3ccccc3)nn2)O[C@@H]2O[C@@]3(C)CC[C@H]4[C@H](C)CC[C@@H]1[C@@]24OO3`, the GI50 (in the assay with B16; in the assay on DLD-1; with A 172; in the assay with SiHa; in the assay with HeLa [1]; in [2]) was 30 nM throughout.
With `C[C@@H]1[C@@H](n2cc(-c3ccc(F)cc3)nn2)O[C@@H]2O[C@@]3(C)CC[C@H]4[C@H](C)CC[C@@H]1[C@@]24OO3`, the 50% growth inhibitory concentration (GI50) (in the assay on B16; in the assay with DLD-1; in the assay with A 172; with SiHa; in the assay on HeLa [1]; in [2]) was 30 nM in each case.
For `C[C@H]1[C@H](n2cc(-c3cc(F)cc(F)c3)nn2)O[C@@H]2O[C@@]3(C)CC[C@H]4[C@H](C)CC[C@@H]1[C@@]24OO3`, the GI50 (in the assay with B16; in the assay with DLD-1; in the assay with A 172; in the assay on SiHa; in the assay on HeLa [1]; in assay [2]) was 50 nM in each case.
Take `C[C@H]1[C@H](n2nncc2-c2ccc(Cl)cc2)O[C@@H]2O[C@@]3(C)CC[C@H]4[C@H](C)CC[C@@H]1[C@@]24OO3`: the 50% growth inhibitory concentration (GI50) (in the assay on B16; in the assay with DLD-1; in the assay with A 172; in the assay on SiHa; in the assay with HeLa [1]; in assay [2]) was 40 nM each time.
As for `Cc1ccc(-c2cn([C@H]3O[C@@H]4O[C@@]5(C)CC[C@H]6[C@H](C)CC[C@@H]([C@@H]3C)[C@@]46OO5)nn2)cc1`, the GI50 (in the assay with B16; in the assay with DLD-1; with A 172; in the assay with SiHa; in the assay on HeLa [1]; in assay [2]) was 30 nM in each case.
Take `COc1ccc(-c2cnnn2[C@@H]2O[C@@H]3O[C@@]4(C)CC[C@H]5[C@H](C)CC[C@@H]([C@H]2C)[C@@]35OO4)cc1`: the GI50 (in the assay on B16; in the assay on DLD-1; with A 172; with SiHa; with HeLa [1]; in assay [2]) was 40 nM in each case.
On to `C[C@H]1[C@H](n2cc(-c3ccccc3)nn2)O[C@@H]2O[C@@]3(C)CC[C@H]4[C@H](C)CC[C@@H]1[C@@]24OO3`, for which the GI50 (in the assay on B16; in the assay with DLD-1; in the assay with A 172; with SiHa; with HeLa [1]; in [2]) was 50 nM throughout.
Turning to `C[C@H]1[C@@H](NC(=O)COCc2ccc(C(=O)/C=C/c3ccc(F)cc3F)cc2)O[C@@H]2O[C@@]3(C)CC[C@H]4[C@H](C)CC[C@@H]1[C@@]24OO3`, the IC50 in the assay on HT-29, with HeLa [3], with MDA-MB-231, in the assay on A549 and in the assay on NCI-H460 was 90 nM throughout.
In the case of `C[C@H]1[C@H](NC(=O)COCc2ccc(C(=O)/C=C/c3ccc(Cl)cc3F)cc2)O[C@@H]2O[C@@]3(C)CC[C@H]4[C@H](C)CC[C@@H]1[C@@]24OO3`, the IC50 with HT-29, in the assay with HeLa [3], with MDA-MB-231, in the assay on A549 and in the assay on NCI-H460 was 100 nM in each case.
With `COc1ccc(OC)c(/C=C/C(=O)c2ccc(COCC(=O)N[C@@H]3O[C@@H]4O[C@@]5(C)CC[C@H]6[C@H](C)CC[C@@H]([C@H]3C)[C@@]46OO5)cc2)c1`, the IC50 in the assay with HT-29, in the assay on HeLa [3], with MDA-MB-231, in the assay with A549 and with NCI-H460 was 100 nM throughout.
Turning to `C[C@H]1[C@@H](NC(=O)COCc2ccc(C(=O)/C=C/c3ccc(Cl)cc3F)cc2)O[C@@H]2O[C@@]3(C)CC[C@H]4[C@H](C)CC[C@@H]1[C@@]24OO3`, the IC50 in the assay on HT-29, with HeLa [3], in the assay on MDA-MB-231, with A549 and in the assay with NCI-H460 was 90 nM each time.
As for `C[C@H]1[C@H](NC(=O)COCc2ccc(C(=O)/C=C/c3ccccc3F)cc2)O[C@@H]2O[C@@]3(C)CC[C@H]4[C@H](C)CC[C@@H]1[C@@]24OO3`, the half-inhibitory concentration (IC50) in the assay with HT-29, in the assay with HeLa [3], in the assay with MDA-MB-231, in the assay on A549 and in the assay on NCI-H460 was 100 nM in each case.
Turning to `COc1cccc(/C=C/C(=O)c2ccc(COCC(=O)N[C@@H]3O[C@@H]4O[C@@]5(C)CC[C@H]6[C@H](C)CC[C@@H]([C@H]3C)[C@@]46OO5)cc2)c1`, the IC50 in the assay with HT-29, with HeLa [3], in the assay on MDA-MB-231, with A549 and with NCI-H460 was 100 nM in each case.
As for `C[C@H]1[C@H](NC(=O)COCc2ccc(C(=O)/C=C/c3ccc(Cl)cc3)cc2)O[C@@H]2O[C@@]3(C)CC[C@H]4[C@H](C)CC[C@@H]1[C@@]24OO3`, the IC50 with HT-29, in the assay on HeLa [3], with MDA-MB-231, in the assay with A549 and in the assay on NCI-H460 was 100 nM each time.
In the case of `C[C@H]1[C@@H](NC(=O)COCc2ccc(C(=O)/C=C/c3ccc(S(C)(=O)=O)cc3)cc2)O[C@@H]2O[C@@]3(C)CC[C@H]4[C@H](C)CC[C@@H]1[C@@]24OO3`, the IC50 in the assay on HT-29, in the assay on HeLa [3], in the assay on MDA-MB-231, in the assay on A549 and in the assay with NCI-H460 was 90 nM each time.
As to `C[C@H]1[C@H](NC(=O)COCc2ccc(C(=O)/C=C/c3ccc(F)c(F)c3)cc2)O[C@@H]2O[C@@]3(C)CC[C@H]4[C@H](C)CC[C@@H]1[C@@]24OO3`, the IC50 in the assay on HT-29, with HeLa [3], with MDA-MB-231, in the assay on A549 and with NCI-H460 was 100 nM throughout.
